Results taken from ChEMBL document CHEMBL1138420, “Discovery of adamantane ethers as inhibitors of 11beta-HSD-1: Synthesis and biological evaluation” (Bioorg Med Chem Lett, 2007).

How the values were obtained:
[1] = biological target: 11-beta-hydroxysteroid dehydrogenase 1 (Mus musculus, UniProt P50172); assay: Inhibition of mouse 11beta-HSD1 by SPA
[2] = Metabolic stability in mouse liver microsome after 30 mins; format: ADME; settings: liver microsomes, read-out: Stability
[3] = biological target: T1, 11-beta-hydroxysteroid dehydrogenase 1 (Homo sapiens, UniProt P28845); assay: Inhibition of human 11beta-HSD1 by SPA
T1 sequence (P28845 whole entry): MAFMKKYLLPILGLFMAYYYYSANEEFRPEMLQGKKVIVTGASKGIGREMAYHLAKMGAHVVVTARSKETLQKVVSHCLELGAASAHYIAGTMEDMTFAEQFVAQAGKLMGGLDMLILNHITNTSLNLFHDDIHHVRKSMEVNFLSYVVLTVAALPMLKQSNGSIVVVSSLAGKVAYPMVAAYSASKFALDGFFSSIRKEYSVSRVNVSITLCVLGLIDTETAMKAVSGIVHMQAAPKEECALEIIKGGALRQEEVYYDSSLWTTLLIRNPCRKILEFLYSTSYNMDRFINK

[4] = biological target: T2, 11-beta-hydroxysteroid dehydrogenase type 2 (Homo sapiens, UniProt P80365); assay: Inhibition of human 11beta-HSD2 by SPA
T2 sequence (P80365 whole entry): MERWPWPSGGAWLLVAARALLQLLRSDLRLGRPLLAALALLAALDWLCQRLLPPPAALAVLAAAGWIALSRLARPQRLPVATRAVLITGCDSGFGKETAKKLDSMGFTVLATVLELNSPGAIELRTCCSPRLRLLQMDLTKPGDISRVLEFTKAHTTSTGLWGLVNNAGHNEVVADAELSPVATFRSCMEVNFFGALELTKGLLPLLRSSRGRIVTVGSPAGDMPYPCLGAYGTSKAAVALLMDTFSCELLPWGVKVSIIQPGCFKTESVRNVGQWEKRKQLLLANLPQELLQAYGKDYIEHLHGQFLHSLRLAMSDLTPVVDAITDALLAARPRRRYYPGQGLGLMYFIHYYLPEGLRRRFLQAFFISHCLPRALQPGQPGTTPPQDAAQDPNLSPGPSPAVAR

[5] = biological target: T3, 11-beta-hydroxysteroid dehydrogenase type 2 (Mus musculus, UniProt P51661); assay: Inhibition of mouse 11beta-HSD2 by SPA
T3 sequence (P51661 whole entry): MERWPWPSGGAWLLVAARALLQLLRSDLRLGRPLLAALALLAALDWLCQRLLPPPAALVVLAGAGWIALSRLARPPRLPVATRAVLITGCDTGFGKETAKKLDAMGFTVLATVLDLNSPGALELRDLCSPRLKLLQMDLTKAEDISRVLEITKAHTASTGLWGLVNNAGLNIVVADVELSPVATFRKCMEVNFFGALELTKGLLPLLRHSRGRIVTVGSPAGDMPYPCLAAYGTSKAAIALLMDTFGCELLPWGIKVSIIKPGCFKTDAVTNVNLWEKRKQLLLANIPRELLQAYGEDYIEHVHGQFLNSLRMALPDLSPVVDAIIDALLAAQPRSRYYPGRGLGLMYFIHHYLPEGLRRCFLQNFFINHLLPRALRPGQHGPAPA

[6] = biological target: T1, 11-beta-hydroxysteroid dehydrogenase 1; assay: Inhibition of human 11beta-HSD1 expressed in HEK293 cells by FPIA; format: cell-based
Mus musculus [7] = assay: Ex vivo inhibition of 11beta-HSD1 in ob/ob mouse liver at 30 mg/kg, po after 1 hr; format: functional
Mus musculus [8] = assay: Ex vivo inhibition of 11beta-HSD1 in ob/ob mouse liver at 30 mg/kg, po after 7 hrs; format: functional
Mus musculus [9] = assay: Ex vivo inhibition of 11beta-HSD1 in ob/ob mouse liver at 30 mg/kg, po after 16 hrs; format: functional
Mus musculus [10] = assay: Ex vivo inhibition of 11beta-HSD1 in ob/ob mouse fat at 30 mg/kg, po after 1 hr; format: functional
Mus musculus [11] = assay: Ex vivo inhibition of 11beta-HSD1 in ob/ob mouse fat at 30 mg/kg, po after 7 hrs; format: functional
Mus musculus [12] = assay: Ex vivo inhibition of 11beta-HSD1 in ob/ob mouse fat at 30 mg/kg, po after 16 hrs; format: functional
Mus musculus [13] = assay: Ex vivo inhibition of 11beta-HSD1 in ob/ob mouse brain at 30 mg/kg, po after 1 hr; format: functional
Mus musculus [14] = assay: Ex vivo inhibition of 11beta-HSD1 in ob/ob mouse brain at 30 mg/kg, po after 7 hrs; format: functional
Mus musculus [15] = assay: Ex vivo inhibition of 11beta-HSD1 in ob/ob mouse brain at 30 mg/kg, po after 16 hrs; format: functional
[16] = Plasma clearance in ob/ob mouse at 5 mg/kg, iv or 10 mg/kg, po; format: ADME, organism-based
[17] = Half life in ob/ob mouse at 5 mg/kg, iv or 10 mg/kg, po; format: ADME, organism-based; settings: in vivo
[18] = Bioavailability in ob/ob mouse at 10 mg/kg; format: ADME, organism-based; settings: in vivo, oral

Chain of 11-beta-hydroxysteroid dehydrogenase 1 (Mus musculus, UniProt P50172) (P50172 whole entry): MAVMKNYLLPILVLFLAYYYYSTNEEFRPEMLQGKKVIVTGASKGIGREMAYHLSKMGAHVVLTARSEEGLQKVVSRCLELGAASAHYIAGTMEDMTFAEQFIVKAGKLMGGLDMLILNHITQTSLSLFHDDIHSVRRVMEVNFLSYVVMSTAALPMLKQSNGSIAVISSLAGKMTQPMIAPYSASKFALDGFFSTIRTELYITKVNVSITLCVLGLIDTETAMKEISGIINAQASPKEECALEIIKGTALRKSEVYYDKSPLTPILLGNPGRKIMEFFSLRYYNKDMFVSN

| Structure (SMILES) | IC50 [1] [nM] | remaining at 0.5 h [2] [%] | IC50 [3] [nM] | IC50 [4] [nM] | IC50 [5] [nM] | IC50 [6] [nM] | also measured |
| --- | --- | --- | --- | --- | --- | --- | --- |
| CC(C)(Oc1ccc(Cl)cc1)C(=O)N[C@H]1C2CC3CC1C[C@](C(=O)O)(C3)C2 | 70 | 89 |  |  |  |  |  |
| CC(C)(Oc1ccccc1)C(=O)N[C@H]1C2CC3CC1C[C@](C(=O)O)(C3)C2 | 119 | 98 |  |  |  |  |  |
| CNC(=O)NC(=O)[C@]12CC3CC(C1)[C@@H](NC(=O)C(C)(C)Oc1ccc(Cl)cc1)C(C3)C2 | 8 |  |  |  |  |  |  |
| CC(C)(Oc1cccc(Cl)c1)C(=O)N[C@H]1C2CC3CC1C[C@](C(=O)O)(C3)C2 | 51 | 100 | 15 | 3500 | 540 | 190 |  |
| CC(C)(Oc1ccc(Cl)cc1)C(=O)N[C@H]1C2CC3CC1C[C@](C(=O)NCc1ccc(S(N)(=O)=O)cc1)(C3)C2 | 24 | 35 | 51 | > 30000 | 16000 | 300 | inhibition in vivo at 30 mg/kg (Mus musculus [7]): 45%; inhibition in vivo at 30 mg/kg (Mus musculus [8]): 55%; inhibition in vivo at 30 mg/kg (Mus musculus [9]): 58%; inhibition in vivo at 30 mg/kg (Mus musculus [10]): 15%; inhibition in vivo at 30 mg/kg (Mus musculus [11]): 18%; inhibition in vivo at 30 mg/kg (Mus musculus [12]): 5%; inhibition in vivo at 30 mg/kg (Mus musculus [13]): 0%; inhibition in vivo at 30 mg/kg (Mus musculus [14]): 0%; inhibition in vivo at 30 mg/kg (Mus musculus [15]): 18%; clearance [16]: 15 mL/min/kg; half-life [17]: 3.8 h; bioavailability [18]: 44% |
| CC(C)(Oc1ccc(Cl)cc1)C(=O)N[C@H]1C2CC3CC1C[C@](C(N)=O)(C3)C2 | 3 | 43 |  |  |  |  | clearance [16]: 70 mL/min/kg; half-life [17]: 0.3 h; bioavailability [18]: 20% |
| CC(C)(Oc1ccc(Cl)cc1)C(=O)N[C@H]1C2CC3CC1C[C@](COCC(=O)O)(C3)C2 | 210 | 100 | 110 | > 100000 | 45000 | 670 |  |
| CC(C)(Oc1ccc(Cl)cc1)C(=O)N[C@H]1C2CC3CC1C[C@](C(=O)NCc1ccncc1)(C3)C2 | 14 | 16 | 25 | 5300 | 19000 | 91 |  |
| CC(C)(Oc1ccccc1Cl)C(=O)N[C@H]1C2CC3CC1C[C@](C(=O)NS(C)(=O)=O)(C3)C2 | 28 | 94 | 96 | 580 | 1200 | 744 |  |
| CC(C)(Oc1ccc(Cl)cc1)C(=O)N[C@H]1C2CC3CC1C[C@](CO)(C3)C2 | 6 | 19 |  |  |  |  |  |
| CC(C)(Oc1ccccc1)C(=O)N[C@H]1C2CC3CC1C[C@](C(N)=O)(C3)C2 | 4 | 78 |  |  |  |  |  |
| CC(C)(Oc1ccc(Cl)cc1)C(=O)N[C@H]1C2CC3CC1C[C@](C(=O)NCc1ccc(C(=O)O)cc1)(C3)C2 | 12 | 94 |  |  |  |  | inhibition in vivo at 30 mg/kg (Mus musculus [7]): 99%; inhibition in vivo at 30 mg/kg (Mus musculus [8]): 93%; inhibition in vivo at 30 mg/kg (Mus musculus [9]): 77%; inhibition in vivo at 30 mg/kg (Mus musculus [10]): 37%; inhibition in vivo at 30 mg/kg (Mus musculus [11]): 38%; inhibition in vivo at 30 mg/kg (Mus musculus [12]): 36% |
| CC(C)(Oc1ccc(Cl)cc1)C(=O)N[C@H]1C2CC3CC1C[C@](C(=O)NCc1ccc(C(=O)NS(C)(=O)=O)cc1)(C3)C2 |  | 51 |  |  |  |  |  |
| CC(C)(Oc1ccccc1Cl)C(=O)N[C@H]1C2CC3CC1C[C@](C(=O)O)(C3)C2 | 8 | 94 | 8 | 1800 | 140 | 59 | inhibition in vivo at 30 mg/kg (Mus musculus [7]): 81%; inhibition in vivo at 30 mg/kg (Mus musculus [8]): 76%; inhibition in vivo at 30 mg/kg (Mus musculus [9]): 35%; inhibition in vivo at 30 mg/kg (Mus musculus [10]): 67%; inhibition in vivo at 30 mg/kg (Mus musculus [11]): 47%; inhibition in vivo at 30 mg/kg (Mus musculus [12]): 6%; clearance [16]: 15 mL/min/kg; half-life [17]: 3.9 h; bioavailability [18]: 100% |
| CC(C)(Oc1ccc(F)cc1Cl)C(=O)N[C@H]1C2CC3CC1C[C@](c1nnn[nH]1)(C3)C2 | 10 | 87 |  |  |  |  |  |
| COc1ccc(OC(C)(C)C(=O)N[C@H]2C3CC4CC2C[C@](C(N)=O)(C4)C3)cc1 | 4 | 57 |  |  |  |  |  |
| CC(C)(Oc1ccccc1Cl)C(=O)N[C@H]1C2CC3CC1C[C@](C(=O)NS(=O)(=O)c1ccccc1)(C3)C2 | 1000 |  | 500 |  |  |  |  |
| CC(C)(Oc1ccc(Cl)cc1)C(=O)N[C@H]1C2CC3CC1C[C@](C(=O)NCc1ccc(-c4nnn[nH]4)cc1)(C3)C2 | 18 | 51 |  |  |  |  |  |
| CC(C)(Oc1ccc(Cl)cc1)C(=O)N[C@H]1C2CC3CC1C[C@](C(=O)NCc1cncs1)(C3)C2 | 11 | 5 |  |  |  |  |  |
| CC(C)(Oc1ccc(Cl)cc1)C(=O)N[C@H]1C2CC3CC1C[C@](C(=O)NCC(N)=O)(C3)C2 | 4 | 78 |  |  |  |  |  |
